Measured values as given in US20130102595A1 (Curis, Inc., priority 2011, published 2013).

Tests used:
Calu6 = experiment: Cell proliferation assay (CellTiter-Glo); format: cell-based; settings: Homo sapiens, Calu-6; NSCLC; 72 hours, 0.5% fetal bovine serum; read-out: antiproliferative activity IC50, Calu6
Protocol: (§1) Cell Proliferation Assay:
(§2) Cancer cell lines were plated at 5,000 to 10,000 per well in 96-well flat bottomed plates with various concentration of compounds. The cells were incubated with compounds for 72 hours in the presence of 0.5% of fetal bovine serum. Growth inhibition was accessed by adenosine triphosphate (ATP) content assay using Promega CellTiter-Glo kit. Promega CellTiter-Glo kit is an ATP monitoring system based on firefly luciferase. Briefly, 16 μl of mammalian cell lysis and substrate solution was added to 84 μl of culture medium per well to lyse the cells and stabilize the ATP. The mixture was shaken and incubated for 30 minutes and subsequently the luminescence was measured.

CaPan1 = experiment: Cell proliferation assay (CellTiter-Glo); format: cell-based; settings: Homo sapiens, CAPAN-1; Pancreas; 72 hours, 0.5% fetal bovine serum; read-out: antiproliferative activity IC50, CaPan1
Protocol: as §1, §2

MiaPaca1 = experiment: Cell proliferation assay (CellTiter-Glo); format: cell-based; settings: Pancreas; 72 hours, 0.5% fetal bovine serum; read-out: antiproliferative activity IC50, MiaPaca1
Protocol: as §1, §2

MDA-MB-231 = experiment: Cell proliferation assay (CellTiter-Glo); format: cell-based; settings: Homo sapiens, Breast, 72 hours, 0.5% fetal bovine serum, read-out: antiproliferative activity IC50, MDA-MB-231
Protocol: as §1, §2

SW1990 = experiment: Cell proliferation assay (CellTiter-Glo); format: cell-based; settings: Homo sapiens, Pancreas, 72 hours, 0.5% fetal bovine serum, read-out: antiproliferative activity IC50, SW1990
Protocol: as §1, §2

CaPan2 = experiment: Cell proliferation assay (CellTiter-Glo); format: cell-based; settings: Homo sapiens, Capan-2; Pancreas; 72 hours, 0.5% fetal bovine serum; read-out: antiproliferative activity IC50, CaPan2
Protocol: as §1, §2

CFPAC-1 = experiment: Cell proliferation assay (CellTiter-Glo); format: cell-based; settings: Homo sapiens, Pancreas, 72 hours, 0.5% fetal bovine serum, read-out: antiproliferative activity IC50, CFPAC-1
Protocol: as §1, §2

PANC-1 = experiment: Cell proliferation assay (CellTiter-Glo); format: cell-based; settings: Homo sapiens, Pancreas, 72 hours, 0.5% fetal bovine serum, read-out: antiproliferative activity IC50, PANC-1
Protocol: as §1, §2

WiDr = experiment: Cell proliferation assay (CellTiter-Glo); format: cell-based; settings: Homo sapiens, Colon, 72 hours, 0.5% fetal bovine serum, read-out: antiproliferative activity IC50, WiDr
Protocol: as §1, §2

[1] = tested on: HDACs (HeLa cell nuclear extracts); experiment: HDAC enzymatic activity, Biomol Color de Lys system; format: biochemical; settings: 1 hour, 25° C.
Procedure, shortened: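 IC50 from sigmoidal fit of developer-terminated fluorescence (ex 350-380/em 440-460 nm). Reaction: 1 h at room temperature (25 °C), HeLa nuclear extract as HDAC source, artificial substrate, buffer of 50 mM Tris/Cl pH 8.0 with 137 mM NaCl, 2.7 mM KCl and 1 mM MgCl2.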

PI3Kδ (p110δ/p85α) = biological target: T1, PI3Kδ (p110δ/p85α) (Homo sapiens, UniProt O00329); experiment: PI3Kδ ADP-Glo assay; format: biochemical; settings: 20 μM PIP2, 10 μM ATP, 90 minutes
T1 construct: GST (N); made in house; host or cells: Baculovirus-infected Sf9 cells
Protocol: (c) an In Vitro Assay which Determines the Ability of a Test Compound to Inhibit PI3Kδ.
(§3) Activity of PI3Kδ was measured using ADP-Glo assay from Promega. PI3Kδ, a complex of N-terminal GST-tagged recombinant full-length human p110δ (GenBank, Accession No. NM_005026) and untagged recombinant full length human p85α (GenBank Accession No. XM—043865) were co-expressed in a Baculovirus infected Sf9 cell expression system. The ADP-Glo assay was performed to measure the amount of ADP generated from ATP hydrolysis coupled with PIP2 phosphorylation by the purified recombinant PI3Kδ (p110δ/p85α). PI3Kδ was incubated with 20 μM PIP2 substrate in the reaction buffer (10 mM Tris-HCl, pH 7.5, 50 mM NaCl, 5 mM MgCl2, 10 μM ATP and 0.5% DMSO) for 90 minutes at room temperature. The ADP generated was then detected by ADP-Glo assay from Promega, a luminescent ADP detection assay. The ADP-Glo assay is performed in two steps; first, after the kinase reaction, ADP-Glo Reagent is added to terminate the kinase reaction and deplete the remaining ATP. Second, the Kinase Detection Reagent is added to simultaneously convert ADP to ATP and allow the newly synthesized ATP to be measured using a luciferase/luciferin reaction.

PI3Kβ (p110β/p85α) = biological target: T2, PI3Kβ (p110β/p85α) (Homo sapiens, UniProt P42338); experiment: PI3Kβ ADP-Glo assay; format: biochemical; settings: 20 μM PIP2, 10 μM ATP, 90 minutes
T2 construct: His (N); made in house; host or cells: Baculovirus-infected Sf9 cells
Protocol: (B) an In Vitro Assay which Determines the Ability of a Test Compound to Inhibit PI3Kβ.
as §3, with “PI3Kβ” for “PI3Kδ”, “[…],” for “PI3Kδ,”, “His-tagged” for “GST-tagged”, “p110β” for “p110δ”, “NM_006219)” for “NM_005026)”, “PI3Kβ (p110β/p85α). PI3Kβ” for “PI3Kδ (p110δ/p85α). PI3Kδ”

[2] = biological target: T3, mTor serine/threonine protein kinase (Homo sapiens, UniProt P42345); experiment: mTor kinase radioisotope assay; format: biochemical; settings: 70 uM ATP, 40 minutes; read-out: m-TOR IC50
T3 construct: FLAG; made in house; host or cells: Baculovirus expression system in Sf21 cells
Procedure, shortened: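 FLAG-tagged full-length recombinant human mTor from baculovirus/Sf21, incubated with p70S6K C-terminal fragment (2 mg/ml) and 70 uM ATP plus 33P-ATP tracer in 50 mM HEPES pH 7.5, 3 mM MnCl2, 40 min at room temperature. Phosphoric acid stop, filtermat capture, scintillation counting; IC50 from sigmoidal dose-response fit.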

PI3Kγ (p120γ) = biological target: T4, PI3Kγ (p120γ) (Homo sapiens, UniProt P48736); experiment: PI3Kγ ADP-Glo assay; format: biochemical; settings: 20 μM PIP2, 10 μM ATP, 90 minutes
T4 construct: His (N); made in house; host or cells: Baculovirus-infected Sf9 cells
Protocol: (d) an In Vitro Assay which Determines the Ability of a Test Compound to Inhibit PI3Kγ.
Activity of PI3Kγ was measured using ADP-Glo assay from Promega. PI3Kγ, N-terminal His-tagged recombinant full-length human p120γ (GenBank, Accession No. AF327656) was expressed in a Baculovirus infected Sf9 cell expression system. The ADP-Glo assay was performed to measure the amount of ADP generated from ATP hydrolysis coupled with PIP2 phosphorylation by the purified recombinant PI3Kγ […]. PI3Kγ was incubated with 20 μM PIP2 substrate in the reaction buffer (10 mM Tris-HCl, pH 7.5, 50 mM NaCl, 5 mM MgCl2, 10 μM ATP and 0.5% DMSO) for 90 minutes at room temperature. The ADP generated was then detected by ADP-Glo assay from Promega, a luminescent ADP detection assay. The ADP-Glo assay is performed in two steps; first, after the kinase reaction, ADP-Glo Reagent is added to terminate the kinase reaction and deplete the remaining ATP. Second, the Kinase Detection Reagent is added to simultaneously convert ADP to ATP and allow the newly synthesized ATP to be measured using a luciferase/luciferin reaction.

PI3Kα (p110α/p85α) = biological target: T5, PI3Kα (p110α/p85α) (Homo sapiens, UniProt P42336); experiment: PI3Kα ADP-Glo assay; format: biochemical; settings: 20 μM PIP2, 10 μM ATP, 30 minutes
T5 construct: GST (N); made in house; host or cells: Baculovirus-infected Sf9 cells
Procedure, shortened: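 Luminescent ADP-Glo detection, after depletion of residual ATP, quantified ADP made by PI3Kα phosphorylating 20 μM PIP2 at 10 μM ATP. The kinase step ran 30 min at room temperature in HEPES pH 7.4 with MgCl2, DTT and orthovanadate, using baculovirus/Sf9-expressed full-length p110α/p85α complex.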

SWI-116 = experiment: Cell proliferation assay (CellTiter-Glo); format: cell-based; settings: Colon; 72 hours, 0.5% fetal bovine serum; read-out: antiproliferative activity IC50, SWI-116
Protocol: as §1, §2

OPM-2 = experiment: Cell proliferation assay (CellTiter-Glo); format: cell-based; settings: Homo sapiens, Multiple Myeloma, 72 hours, 0.5% fetal bovine serum, read-out: antiproliferative activity IC50, OPM-2
Protocol: as §1, §2

T5 sequence (P42336 whole entry): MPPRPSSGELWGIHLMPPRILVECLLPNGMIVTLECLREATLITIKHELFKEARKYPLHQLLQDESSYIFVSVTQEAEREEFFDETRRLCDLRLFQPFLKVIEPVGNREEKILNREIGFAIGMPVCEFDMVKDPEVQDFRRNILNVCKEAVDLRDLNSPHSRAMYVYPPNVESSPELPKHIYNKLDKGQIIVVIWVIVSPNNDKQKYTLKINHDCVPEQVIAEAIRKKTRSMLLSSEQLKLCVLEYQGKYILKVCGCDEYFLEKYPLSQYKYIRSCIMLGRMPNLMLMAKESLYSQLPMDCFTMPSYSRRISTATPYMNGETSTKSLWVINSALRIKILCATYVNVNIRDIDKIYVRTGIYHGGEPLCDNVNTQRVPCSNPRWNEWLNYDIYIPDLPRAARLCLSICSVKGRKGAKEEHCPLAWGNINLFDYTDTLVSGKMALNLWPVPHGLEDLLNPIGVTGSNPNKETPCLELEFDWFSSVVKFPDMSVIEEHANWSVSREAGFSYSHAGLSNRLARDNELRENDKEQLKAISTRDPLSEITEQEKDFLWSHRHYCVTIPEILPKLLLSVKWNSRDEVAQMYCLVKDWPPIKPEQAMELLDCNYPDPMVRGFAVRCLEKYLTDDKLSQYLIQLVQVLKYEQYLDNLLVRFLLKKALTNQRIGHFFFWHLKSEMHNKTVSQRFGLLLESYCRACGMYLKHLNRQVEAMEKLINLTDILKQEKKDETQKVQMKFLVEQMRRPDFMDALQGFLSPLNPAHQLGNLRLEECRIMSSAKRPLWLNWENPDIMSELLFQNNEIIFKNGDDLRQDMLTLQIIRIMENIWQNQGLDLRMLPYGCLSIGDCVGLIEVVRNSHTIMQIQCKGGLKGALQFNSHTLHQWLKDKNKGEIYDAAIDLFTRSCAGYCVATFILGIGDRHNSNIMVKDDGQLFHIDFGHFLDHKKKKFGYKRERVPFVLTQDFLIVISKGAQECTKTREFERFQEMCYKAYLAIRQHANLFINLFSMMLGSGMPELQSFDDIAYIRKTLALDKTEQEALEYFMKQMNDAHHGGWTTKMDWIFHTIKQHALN
T5 sequence (P27986 whole entry partner): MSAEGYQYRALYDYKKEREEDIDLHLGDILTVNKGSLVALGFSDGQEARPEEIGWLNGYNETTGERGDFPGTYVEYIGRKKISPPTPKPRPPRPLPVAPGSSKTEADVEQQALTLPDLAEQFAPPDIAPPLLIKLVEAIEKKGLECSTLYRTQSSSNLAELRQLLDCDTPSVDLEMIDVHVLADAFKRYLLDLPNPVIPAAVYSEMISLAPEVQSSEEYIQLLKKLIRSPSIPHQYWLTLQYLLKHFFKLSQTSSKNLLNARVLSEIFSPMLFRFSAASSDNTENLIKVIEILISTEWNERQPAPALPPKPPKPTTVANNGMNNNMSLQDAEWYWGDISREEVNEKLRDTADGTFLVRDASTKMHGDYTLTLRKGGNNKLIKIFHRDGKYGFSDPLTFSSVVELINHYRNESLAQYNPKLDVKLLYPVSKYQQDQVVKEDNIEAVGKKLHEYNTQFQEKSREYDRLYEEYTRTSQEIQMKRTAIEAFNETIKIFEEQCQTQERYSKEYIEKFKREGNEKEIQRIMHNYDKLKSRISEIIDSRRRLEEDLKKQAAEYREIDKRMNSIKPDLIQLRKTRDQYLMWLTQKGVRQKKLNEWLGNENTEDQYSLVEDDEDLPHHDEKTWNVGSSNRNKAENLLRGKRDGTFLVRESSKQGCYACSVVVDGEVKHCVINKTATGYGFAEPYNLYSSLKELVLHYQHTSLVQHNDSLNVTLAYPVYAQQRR
T2 sequence (P42338 whole entry): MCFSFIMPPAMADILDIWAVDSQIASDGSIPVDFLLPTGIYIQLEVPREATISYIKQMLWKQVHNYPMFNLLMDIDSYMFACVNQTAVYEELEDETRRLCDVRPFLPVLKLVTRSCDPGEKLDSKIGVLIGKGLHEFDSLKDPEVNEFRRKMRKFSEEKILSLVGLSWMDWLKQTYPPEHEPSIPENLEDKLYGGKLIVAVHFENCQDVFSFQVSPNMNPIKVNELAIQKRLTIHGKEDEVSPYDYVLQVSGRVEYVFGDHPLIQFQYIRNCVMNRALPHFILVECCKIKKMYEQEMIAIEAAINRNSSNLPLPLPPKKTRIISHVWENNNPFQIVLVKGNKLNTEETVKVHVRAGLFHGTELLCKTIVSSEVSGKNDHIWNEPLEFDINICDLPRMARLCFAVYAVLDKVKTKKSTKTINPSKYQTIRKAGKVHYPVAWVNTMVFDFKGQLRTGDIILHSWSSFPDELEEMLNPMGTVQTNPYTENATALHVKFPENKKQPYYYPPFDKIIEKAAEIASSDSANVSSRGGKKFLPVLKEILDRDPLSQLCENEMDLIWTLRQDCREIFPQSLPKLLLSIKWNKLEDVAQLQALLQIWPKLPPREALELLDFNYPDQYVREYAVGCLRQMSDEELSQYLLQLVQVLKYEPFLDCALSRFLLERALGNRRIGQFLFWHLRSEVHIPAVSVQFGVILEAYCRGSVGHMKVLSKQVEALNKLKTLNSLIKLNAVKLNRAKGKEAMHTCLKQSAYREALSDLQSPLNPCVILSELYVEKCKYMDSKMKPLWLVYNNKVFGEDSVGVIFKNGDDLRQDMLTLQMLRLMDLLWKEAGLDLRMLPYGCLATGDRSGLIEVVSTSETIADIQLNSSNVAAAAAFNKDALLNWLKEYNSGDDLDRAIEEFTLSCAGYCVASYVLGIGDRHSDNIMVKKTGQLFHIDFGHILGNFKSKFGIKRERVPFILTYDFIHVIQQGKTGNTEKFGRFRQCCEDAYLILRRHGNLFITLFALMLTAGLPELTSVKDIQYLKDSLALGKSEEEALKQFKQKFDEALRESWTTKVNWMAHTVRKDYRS
T2 sequence (P27986 whole entry partner): as the sequence (P27986 whole entry partner) above
T4 sequence (P48736 whole entry): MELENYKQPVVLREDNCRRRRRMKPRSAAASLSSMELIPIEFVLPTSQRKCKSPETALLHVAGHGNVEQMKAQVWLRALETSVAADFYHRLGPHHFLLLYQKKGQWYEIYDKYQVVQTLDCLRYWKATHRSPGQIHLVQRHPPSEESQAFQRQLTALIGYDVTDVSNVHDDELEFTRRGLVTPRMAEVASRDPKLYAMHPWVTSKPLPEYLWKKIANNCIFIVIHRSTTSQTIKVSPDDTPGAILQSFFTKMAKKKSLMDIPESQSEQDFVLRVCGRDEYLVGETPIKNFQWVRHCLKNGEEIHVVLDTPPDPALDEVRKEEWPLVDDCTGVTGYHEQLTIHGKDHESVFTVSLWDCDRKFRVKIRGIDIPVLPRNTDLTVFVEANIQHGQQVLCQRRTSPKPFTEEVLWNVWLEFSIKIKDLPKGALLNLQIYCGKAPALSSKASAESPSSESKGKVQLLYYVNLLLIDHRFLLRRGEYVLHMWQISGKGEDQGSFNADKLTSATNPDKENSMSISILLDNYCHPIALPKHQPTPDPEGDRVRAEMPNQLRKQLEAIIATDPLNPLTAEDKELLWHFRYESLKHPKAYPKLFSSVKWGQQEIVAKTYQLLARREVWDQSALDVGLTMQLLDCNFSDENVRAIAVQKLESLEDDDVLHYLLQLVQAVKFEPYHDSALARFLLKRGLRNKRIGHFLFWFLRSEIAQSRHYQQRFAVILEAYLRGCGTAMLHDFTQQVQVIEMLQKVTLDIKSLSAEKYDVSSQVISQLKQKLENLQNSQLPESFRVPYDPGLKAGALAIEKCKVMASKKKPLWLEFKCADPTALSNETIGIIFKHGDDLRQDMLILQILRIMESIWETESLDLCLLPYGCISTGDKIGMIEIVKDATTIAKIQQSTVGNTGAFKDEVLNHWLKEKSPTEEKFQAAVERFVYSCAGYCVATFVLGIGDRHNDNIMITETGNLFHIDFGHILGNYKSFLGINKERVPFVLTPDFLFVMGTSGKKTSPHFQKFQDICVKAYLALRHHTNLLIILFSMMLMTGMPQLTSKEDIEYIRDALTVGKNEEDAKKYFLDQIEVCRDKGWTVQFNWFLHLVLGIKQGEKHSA
T1 sequence (O00329 whole entry): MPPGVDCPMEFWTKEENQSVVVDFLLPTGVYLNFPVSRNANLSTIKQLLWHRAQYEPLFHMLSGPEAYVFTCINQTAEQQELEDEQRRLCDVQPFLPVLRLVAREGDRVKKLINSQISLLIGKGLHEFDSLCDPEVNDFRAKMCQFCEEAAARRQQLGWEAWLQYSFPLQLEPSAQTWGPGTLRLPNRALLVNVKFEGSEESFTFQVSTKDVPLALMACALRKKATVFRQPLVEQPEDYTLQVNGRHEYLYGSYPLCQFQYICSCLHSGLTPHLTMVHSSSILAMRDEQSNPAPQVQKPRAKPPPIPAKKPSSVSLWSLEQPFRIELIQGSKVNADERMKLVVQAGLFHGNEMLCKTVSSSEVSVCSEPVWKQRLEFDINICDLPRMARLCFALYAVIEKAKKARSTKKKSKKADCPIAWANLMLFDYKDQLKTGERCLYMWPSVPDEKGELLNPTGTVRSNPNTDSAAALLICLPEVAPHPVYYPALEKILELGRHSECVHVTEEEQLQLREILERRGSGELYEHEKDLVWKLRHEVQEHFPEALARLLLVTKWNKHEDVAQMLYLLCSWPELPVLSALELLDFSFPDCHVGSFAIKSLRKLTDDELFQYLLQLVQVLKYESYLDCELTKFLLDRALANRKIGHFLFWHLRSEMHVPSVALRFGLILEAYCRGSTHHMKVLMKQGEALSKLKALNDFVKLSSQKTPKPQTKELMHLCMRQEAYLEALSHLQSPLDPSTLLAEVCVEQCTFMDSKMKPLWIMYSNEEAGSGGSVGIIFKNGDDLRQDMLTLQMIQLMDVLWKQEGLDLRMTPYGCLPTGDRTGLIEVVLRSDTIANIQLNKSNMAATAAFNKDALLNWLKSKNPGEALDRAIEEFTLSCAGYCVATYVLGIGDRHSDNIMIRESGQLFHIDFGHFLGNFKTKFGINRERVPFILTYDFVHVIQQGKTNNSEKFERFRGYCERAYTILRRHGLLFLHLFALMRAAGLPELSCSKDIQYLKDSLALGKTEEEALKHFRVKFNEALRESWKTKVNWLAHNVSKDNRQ
T1 sequence (P27986 whole entry partner): as the sequence (P27986 whole entry partner) above

SMILES | IC50 (Calu6) | IC50 (CaPan1) | IC50 (MiaPaca1) | IC50 (MDA-MB-231) | IC50 (SW1990) | IC50 (CaPan2) | IC50 (CFPAC-1) | IC50 (PANC-1) | IC50 (WiDr) | IC50 [1] | IC50 (PI3Kδ (p110δ/p85α)) | melting point | IC50 (PI3Kβ (p110β/p85α)) | IC50 [2] | IC50 (PI3Kγ (p120γ)) | IC50 (PI3Kα (p110α/p85α)) | IC50 (SWI-116) | IC50 (OPM-2)
Cn1c(=O)n(-c2ccc(C(C)(C)C#N)cc2)c2c3cc(-c4cnc5ccccc5c4)ccc3ncc21 [BEZ-235, 2-methyl-2-(4-(3-methyl-2-oxo-8-(quinolin-3-yl)-2,3-dihydro-1H-imidazo[4,5-c]quinolin-1-yl)phenyl)propanenitrile, reference compound] | 100 to 1000 nM | 100 to 1000 nM | 1000 to 10000 nM | > 10000 nM | 10 to 100 nM | 1000 to 10000 nM | 1000 to 10000 nM | 1000 to 10000 nM | 1000 to 10000 nM | – | – | – | – | – | – | – | – | –
O=C(NO)c1cnc(N2CCN(Cc3cc4nc(-c5cccc6[nH]ncc56)nc(N5CCOCC5)c4s3)CC2)nc1 [Compound 14] | – | – | – | – | – | – | – | – | – | < 100 nM | 100 to 1000 nM | 209 to 221 °C | < 100 nM | 1000 to 10000 nM | < 100 nM | < 100 nM | – | –
O=C(NO)c1cnc(NCc2cc3nc(-c4cccc5[nH]ncc45)nc(N4CCOCC4)c3s2)nc1 [Compound 53, 2-((2-(1H-indazol-4-yl)-4-morpholinothieno[3,2-d]pyrimidin-6-yl)methylamino)-N-hydroxypyrimidine-5-carboxamide] | – | – | – | – | – | – | – | – | – | < 100 nM | < 100 nM | 234 to 237 °C | < 100 nM | – | < 100 nM | < 100 nM | – | –
CC(c1cc2nc(-c3cccc4[nH]ncc34)nc(N3CCOCC3)c2s1)N(C)c1ncc(C(=O)NO)cn1 (stereo not shown) [Compound 70] | – | – | – | – | – | – | – | – | – | < 100 nM | – | – | – | 100 to 1000 nM | – | < 100 nM | 10 to 100 nM | –
CN(Cc1cc2nc(-c3cccc(CO)c3)nc(N3CCOCC3)c2s1)c1ncc(C(=O)NO)cn1 [Compound 138, N-hydroxy-2-(((2-(3-(hydroxymethyl)phenyl)-4-morpholinothieno[3,2-d]pyrimidin-6-yl)methyl)(methyl)amino)pyrimidine-5-carboxamide] | 10 to 100 nM | 10 to 100 nM | 10 to 100 nM | 10 to 100 nM | 10 to 100 nM | 10 to 100 nM | 10 to 100 nM | 10 to 100 nM | 10 to 100 nM | < 100 nM | – | 160 to 164 °C | – | < 100 nM | – | < 100 nM | – | < 10 nM
